Results reported in ChEMBL document CHEMBL1667792, “DNA-dependent protein kinase (DNA-PK) inhibitors: structure-activity relationships for O-alkoxyphenylchromen-4-one probes of the ATP-binding domain” (Bioorg Med Chem Lett, 2011).

Columns and labels:
[1] = target: Phosphatidylinositol 4,5-bisphosphate 3-kinase catalytic subunit alpha isoform (Homo sapiens, UniProt P42336); assay: Inhibition of PI3Kalpha after 80 mins
[2] = target: DNA-dependent protein kinase catalytic subunit (Homo sapiens, UniProt P78527)
DNA-dependent protein kinase catalytic subunit, sequence (P78527 whole entry): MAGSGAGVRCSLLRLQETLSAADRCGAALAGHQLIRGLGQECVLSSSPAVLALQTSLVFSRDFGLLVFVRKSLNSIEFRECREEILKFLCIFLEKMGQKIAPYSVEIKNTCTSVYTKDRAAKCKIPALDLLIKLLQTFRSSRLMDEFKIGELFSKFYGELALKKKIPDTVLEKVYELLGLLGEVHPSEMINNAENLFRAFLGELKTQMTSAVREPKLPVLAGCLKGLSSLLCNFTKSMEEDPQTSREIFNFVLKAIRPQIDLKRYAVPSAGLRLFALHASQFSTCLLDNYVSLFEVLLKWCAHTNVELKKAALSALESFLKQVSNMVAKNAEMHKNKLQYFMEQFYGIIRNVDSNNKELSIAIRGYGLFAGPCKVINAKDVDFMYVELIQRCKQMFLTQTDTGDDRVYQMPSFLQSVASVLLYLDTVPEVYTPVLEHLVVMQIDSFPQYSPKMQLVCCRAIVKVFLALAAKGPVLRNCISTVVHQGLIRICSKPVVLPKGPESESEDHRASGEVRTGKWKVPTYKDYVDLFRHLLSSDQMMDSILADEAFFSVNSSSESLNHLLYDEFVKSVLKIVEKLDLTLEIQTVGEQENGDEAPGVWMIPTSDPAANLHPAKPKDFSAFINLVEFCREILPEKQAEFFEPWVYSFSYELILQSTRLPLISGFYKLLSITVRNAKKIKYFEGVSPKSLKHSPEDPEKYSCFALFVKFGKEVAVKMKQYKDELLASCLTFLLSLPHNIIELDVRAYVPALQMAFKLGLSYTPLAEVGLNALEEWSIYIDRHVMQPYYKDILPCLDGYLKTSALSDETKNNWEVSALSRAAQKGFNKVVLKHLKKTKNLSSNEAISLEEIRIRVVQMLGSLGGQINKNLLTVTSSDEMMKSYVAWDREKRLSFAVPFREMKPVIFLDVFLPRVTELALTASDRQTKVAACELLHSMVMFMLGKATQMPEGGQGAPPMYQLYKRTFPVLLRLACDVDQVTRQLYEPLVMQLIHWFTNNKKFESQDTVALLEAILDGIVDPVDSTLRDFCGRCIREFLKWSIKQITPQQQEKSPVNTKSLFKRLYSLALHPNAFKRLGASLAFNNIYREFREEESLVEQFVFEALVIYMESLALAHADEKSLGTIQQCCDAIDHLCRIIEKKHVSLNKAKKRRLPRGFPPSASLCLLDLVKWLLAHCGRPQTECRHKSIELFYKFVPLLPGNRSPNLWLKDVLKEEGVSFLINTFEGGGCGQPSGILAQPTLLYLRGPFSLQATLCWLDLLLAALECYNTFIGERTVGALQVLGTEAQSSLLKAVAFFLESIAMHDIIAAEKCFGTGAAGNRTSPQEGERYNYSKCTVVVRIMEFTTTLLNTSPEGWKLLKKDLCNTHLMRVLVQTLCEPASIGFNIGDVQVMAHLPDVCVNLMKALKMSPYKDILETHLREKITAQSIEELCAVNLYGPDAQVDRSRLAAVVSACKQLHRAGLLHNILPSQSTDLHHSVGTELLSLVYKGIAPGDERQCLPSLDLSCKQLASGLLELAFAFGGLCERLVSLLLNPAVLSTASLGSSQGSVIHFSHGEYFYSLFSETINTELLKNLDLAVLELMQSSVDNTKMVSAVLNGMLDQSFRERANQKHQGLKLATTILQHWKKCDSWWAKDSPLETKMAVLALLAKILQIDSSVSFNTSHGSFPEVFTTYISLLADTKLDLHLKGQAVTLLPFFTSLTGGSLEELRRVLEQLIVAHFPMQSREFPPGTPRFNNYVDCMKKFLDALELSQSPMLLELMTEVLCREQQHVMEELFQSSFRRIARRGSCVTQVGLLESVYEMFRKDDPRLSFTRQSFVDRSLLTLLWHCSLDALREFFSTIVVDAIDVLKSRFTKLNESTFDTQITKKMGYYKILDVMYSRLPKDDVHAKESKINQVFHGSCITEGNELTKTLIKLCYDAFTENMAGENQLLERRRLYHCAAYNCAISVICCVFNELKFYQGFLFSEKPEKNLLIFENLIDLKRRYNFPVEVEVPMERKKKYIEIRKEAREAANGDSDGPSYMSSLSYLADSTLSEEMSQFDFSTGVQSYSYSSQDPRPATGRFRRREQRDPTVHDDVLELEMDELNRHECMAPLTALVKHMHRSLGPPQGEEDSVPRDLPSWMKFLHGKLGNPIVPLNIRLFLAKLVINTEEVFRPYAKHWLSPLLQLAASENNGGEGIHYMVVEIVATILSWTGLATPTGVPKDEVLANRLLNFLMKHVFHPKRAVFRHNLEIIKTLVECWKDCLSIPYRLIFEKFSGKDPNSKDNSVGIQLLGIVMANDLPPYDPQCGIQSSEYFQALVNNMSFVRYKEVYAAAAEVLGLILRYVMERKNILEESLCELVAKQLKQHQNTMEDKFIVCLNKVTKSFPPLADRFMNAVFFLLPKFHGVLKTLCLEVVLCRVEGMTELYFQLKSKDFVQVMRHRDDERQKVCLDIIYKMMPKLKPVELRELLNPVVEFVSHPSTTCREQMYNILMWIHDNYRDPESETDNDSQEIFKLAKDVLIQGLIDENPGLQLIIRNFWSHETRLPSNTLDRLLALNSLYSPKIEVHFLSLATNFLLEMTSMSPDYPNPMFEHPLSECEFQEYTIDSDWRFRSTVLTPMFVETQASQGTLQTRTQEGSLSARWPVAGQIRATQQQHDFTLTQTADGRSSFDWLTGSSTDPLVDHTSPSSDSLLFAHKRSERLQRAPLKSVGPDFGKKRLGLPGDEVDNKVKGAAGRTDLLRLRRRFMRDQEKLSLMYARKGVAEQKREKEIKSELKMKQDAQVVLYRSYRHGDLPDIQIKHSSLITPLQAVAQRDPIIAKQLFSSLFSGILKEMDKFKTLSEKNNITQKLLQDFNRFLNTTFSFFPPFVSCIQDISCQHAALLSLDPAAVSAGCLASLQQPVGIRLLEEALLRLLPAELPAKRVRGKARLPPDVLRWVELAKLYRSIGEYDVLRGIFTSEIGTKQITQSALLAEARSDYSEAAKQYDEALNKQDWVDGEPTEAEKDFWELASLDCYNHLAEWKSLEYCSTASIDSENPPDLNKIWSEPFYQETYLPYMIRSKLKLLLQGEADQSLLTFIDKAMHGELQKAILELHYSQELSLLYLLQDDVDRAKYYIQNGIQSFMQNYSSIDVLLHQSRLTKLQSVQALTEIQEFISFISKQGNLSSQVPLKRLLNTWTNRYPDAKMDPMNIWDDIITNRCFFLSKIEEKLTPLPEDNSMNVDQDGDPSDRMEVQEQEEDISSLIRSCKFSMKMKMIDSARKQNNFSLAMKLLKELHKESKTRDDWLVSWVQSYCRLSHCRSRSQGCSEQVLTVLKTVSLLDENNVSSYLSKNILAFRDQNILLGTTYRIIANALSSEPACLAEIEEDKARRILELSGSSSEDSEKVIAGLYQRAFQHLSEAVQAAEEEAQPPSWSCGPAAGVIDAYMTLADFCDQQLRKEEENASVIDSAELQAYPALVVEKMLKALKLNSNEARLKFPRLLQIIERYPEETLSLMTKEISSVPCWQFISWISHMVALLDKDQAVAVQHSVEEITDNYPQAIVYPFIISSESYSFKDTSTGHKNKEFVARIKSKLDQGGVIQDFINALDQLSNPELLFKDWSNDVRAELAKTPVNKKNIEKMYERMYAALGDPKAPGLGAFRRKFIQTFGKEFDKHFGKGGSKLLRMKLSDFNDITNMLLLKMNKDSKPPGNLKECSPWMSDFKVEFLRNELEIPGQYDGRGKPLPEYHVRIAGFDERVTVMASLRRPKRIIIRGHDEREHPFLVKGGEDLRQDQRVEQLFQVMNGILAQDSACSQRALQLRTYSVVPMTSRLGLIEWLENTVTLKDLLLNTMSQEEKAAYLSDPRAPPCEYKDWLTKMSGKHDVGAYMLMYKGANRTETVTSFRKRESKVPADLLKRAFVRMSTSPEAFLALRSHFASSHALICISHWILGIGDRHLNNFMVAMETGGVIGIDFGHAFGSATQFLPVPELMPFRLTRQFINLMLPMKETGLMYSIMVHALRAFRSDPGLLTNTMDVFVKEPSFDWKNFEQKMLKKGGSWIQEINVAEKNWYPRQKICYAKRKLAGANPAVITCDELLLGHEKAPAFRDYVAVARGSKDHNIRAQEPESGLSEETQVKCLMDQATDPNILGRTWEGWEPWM

HeLa [3] = assay: Potentiation of ionising radiation-induced DNA damaging activity in human HeLa cells assessed as dose modification ratio at 0.5 uM treated 1 hr before ionising radiation challenge followed by washout measured after 6 to 8 days by Giemsa staining; format: functional
HeLa [4] = assay: Potentiation of ionising radiation-induced DNA damaging activity in human HeLa cells assessed as dose modification ratio at 0.1 uM treated 1 hr before ionising radiation challenge followed by washout measured after 6 to 8 days by Giemsa staining; format: functional

Phosphatidylinositol 4,5-bisphosphate 3-kinase catalytic subunit alpha isoform, sequence (P42336 whole entry, canonical isoform): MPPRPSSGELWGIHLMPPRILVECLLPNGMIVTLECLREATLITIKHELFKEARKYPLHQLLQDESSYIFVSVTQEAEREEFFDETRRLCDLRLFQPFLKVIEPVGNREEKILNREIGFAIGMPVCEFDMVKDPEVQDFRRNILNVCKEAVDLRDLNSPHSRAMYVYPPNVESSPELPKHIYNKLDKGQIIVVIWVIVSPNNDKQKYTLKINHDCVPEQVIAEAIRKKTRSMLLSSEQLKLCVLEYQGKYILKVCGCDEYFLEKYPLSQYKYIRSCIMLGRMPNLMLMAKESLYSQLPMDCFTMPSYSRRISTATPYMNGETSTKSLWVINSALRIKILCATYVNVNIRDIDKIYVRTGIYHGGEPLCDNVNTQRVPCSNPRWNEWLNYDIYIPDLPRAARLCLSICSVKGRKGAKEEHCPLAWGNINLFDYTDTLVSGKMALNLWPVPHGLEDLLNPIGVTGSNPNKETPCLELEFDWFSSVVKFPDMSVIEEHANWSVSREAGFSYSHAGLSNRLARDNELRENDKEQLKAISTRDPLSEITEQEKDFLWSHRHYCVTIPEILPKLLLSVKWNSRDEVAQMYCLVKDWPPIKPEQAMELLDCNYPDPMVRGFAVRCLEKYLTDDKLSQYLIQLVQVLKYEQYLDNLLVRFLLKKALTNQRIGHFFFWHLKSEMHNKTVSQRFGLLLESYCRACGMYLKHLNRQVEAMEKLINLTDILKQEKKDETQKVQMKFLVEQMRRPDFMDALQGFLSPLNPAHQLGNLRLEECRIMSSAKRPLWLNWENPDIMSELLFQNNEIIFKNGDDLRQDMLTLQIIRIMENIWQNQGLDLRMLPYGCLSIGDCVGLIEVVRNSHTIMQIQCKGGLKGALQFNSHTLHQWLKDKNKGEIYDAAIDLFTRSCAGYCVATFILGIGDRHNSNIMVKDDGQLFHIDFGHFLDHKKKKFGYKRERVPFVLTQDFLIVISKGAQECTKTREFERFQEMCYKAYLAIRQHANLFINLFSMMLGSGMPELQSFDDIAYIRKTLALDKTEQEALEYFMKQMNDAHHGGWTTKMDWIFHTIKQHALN

IC50 [1] | IC50 [2] | Structure (SMILES) | Ratio (HeLa [3]) | Ratio (HeLa [4])
0.07 µM | 0.008 µM | O=C(CN1CCOCC1)Nc1ccc(-c2cccc3c(=O)cc(N4CCOCC4)oc23)cc1OCC1CC1 |  | 
0.27 µM | 0.11 µM | CC1(COc2cc(-c3cccc4c(=O)cc(N5CCOCC5)oc34)ccc2NC(=O)CN2CCOCC2)CCC1 |  | 
0.15 µM | 0.17 µM | C=CCOc1cc(-c2cccc3c(=O)cc(N4CCOCC4)oc23)ccc1NC(=O)CN1CCOCC1 |  | 
1.1 µM | 3.3 µM | NC(=O)COc1cc(-c2cccc3c(=O)cc(N4CCOCC4)oc23)ccc1NC(=O)CN1CCOCC1 |  | 
0.13 µM | 0.028 µM | O=c1cc(N2CCOCC2)oc2c(-c3cccc4c3sc3ccccc34)cccc12 |  | 
0.29 µM | 0.33 µM | CC(C)Oc1cc(-c2cccc3c(=O)cc(N4CCOCC4)oc23)ccc1NC(=O)CN1CCOCC1 |  | 
0.35 µM | 0.29 µM | COc1cc(-c2cccc3c(=O)cc(N4CCOCC4)oc23)ccc1NC(=O)CN1CCOCC1 |  | 
0.47 µM | 0.28 µM | CCOc1cc(-c2cccc3c(=O)cc(N4CCOCC4)oc23)ccc1NC(=O)CN1CCOCC1 |  | 
 | 1.3 µM | O=c1cc(N2CCOCC2)oc2c(-c3ccccc3)cccc12 [LY-294002] |  | 
0.15 µM | 0.18 µM | CC(C)COc1cc(-c2cccc3c(=O)cc(N4CCOCC4)oc23)ccc1NC(=O)CN1CCOCC1 |  | 
0.43 µM | 0.08 µM | O=C(CN1CCOCC1)Nc1ccc(-c2cccc3c(=O)cc(N4CCOCC4)oc23)cc1O |  | 
3 µM | 12 µM | NCCOc1cc(-c2cccc3c(=O)cc(N4CCOCC4)oc23)ccc1NC(=O)CN1CCOCC1 |  | 
0.3 µM | 0.69 µM | CC1(COc2cc(-c3cccc4c(=O)cc(N5CCOCC5)oc34)ccc2NC(=O)CN2CCOCC2)COC1 |  | 
1.5 µM | 2.6 µM | COCCOc1cc(-c2cccc3c(=O)cc(N4CCOCC4)oc23)ccc1NC(=O)CN1CCOCC1 |  | 
4.4 µM | > 10 µM | O=C(CN1CCOCC1)Nc1ccc(-c2cccc3c(=O)cc(N4CCOCC4)oc23)cc1OCCN1CCCC1 |  | 
 | 0.014 µM | O=C(CN1CCOCC1)Nc1ccc(-c2cccc3c(=O)cc(N4CCOCC4)oc23)cc1-c1ccccc1 | 8 | 11
1.6 µM | 1 µM | O=C(CN1CCOCC1)Nc1ccc(-c2cccc3c(=O)cc(N4CCOCC4)oc23)cc1OCCO |  | 
0.29 µM | 0.16 µM | O=C(CN1CCOCC1)Nc1ccc(-c2cccc3c(=O)cc(N4CCOCC4)oc23)cc1OCC1CCC1 |  | 
0.4 µM | 0.5 µM | O=C(CN1CCOCC1)Nc1ccc(-c2cccc3c(=O)cc(N4CCOCC4)oc23)cc1OCCC1CC1 |  | 
